{
  "source": "ChEMBL document CHEMBL1649453",
  "about": "“Activity of temocillin against KPC-producing Klebsiella pneumoniae and Escherichia coli” (Antimicrob Agents Chemother, 2009)",
  "key": {"[1]": {"experiment": "Protein binding in human serum at 1 gram, iv", "assay_type": "ADME, organism-based", "settings": "read-out: PB (converted)"}, "[2]": {"tested_on": "Klebsiella pneumoniae", "experiment": "Antimicrobial activity against Klebsiella pneumoniae expressing beta-lactamase KPC gene by agar dilution method", "assay_type": "functional"}, "[3]": {"experiment": "Drug level in human urine at 500 mg, im bid for 3 days", "assay_type": "ADME, organism-based", "settings": "read-out: Drug uptake"}, "[4]": {"tested_on": "Escherichia coli", "experiment": "Antimicrobial activity against Escherichia coli clinical isolates expressing beta-lactamase KPC gene by agar dilution method", "assay_type": "functional"}, "[5]": {"tested_on": "Escherichia coli", "experiment": "Antimicrobial activity against Escherichia coli DH10B by agar dilution method", "assay_type": "functional", "settings": "K-12 DH10B"}, "[6]": {"experiment": "Half life in human serum at 1 gram, iv", "assay_type": "ADME, organism-based"}, "[7]": {"experiment": "Cmax in human serum at 1 gram, iv", "assay_type": "ADME, organism-based", "set-up": "route intravenous"}, "[8]": {"tested_on": "Escherichia coli", "experiment": "Antimicrobial activity against Escherichia coli DH10B harboring pBCSK plasmid expressing beta-lactamase KPC gene by agar dilution method", "assay_type": "functional", "settings": "K-12 DH10B"}},
  "data": [
    {"smiles": "CO[C@@]1(NC(=O)C(C(=O)O)c2ccsc2)C(=O)N2[C@@H](C(=O)O)C(C)(C)S[C@@H]21", "note": "(some centres undefined) [TEMOCILLIN]", "values": [
      {"measurement": "fraction unbound", "setting": "[1]", "value": 0.15},
      {"measurement": "MIC50", "setting": "[2]", "value": 32, "unit": "µg/mL"},
      {"measurement": "MIC90", "setting": "[2]", "value": 32, "unit": "µg/mL"},
      {"measurement": "concentration at 72 h", "setting": "[3]", "value": 500, "unit": "µg/mL"},
      {"measurement": "MIC", "setting": "[4]", "value": 8, "unit": "µg/mL"},
      {"measurement": "MIC", "setting": "[5]", "value": 8, "unit": "µg/mL"},
      {"measurement": "half-life", "setting": "[6]", "value": 4, "unit": "h"},
      {"measurement": "Cmax", "setting": "[7]", "value": 160, "unit": "µg/mL"},
      {"measurement": "MIC", "setting": "[8]", "value": 8, "unit": "µg/mL"}
    ]}
  ]
}
